Counter-ions that a name gives are not always drawn.
Tests used:
[1] = Saturation concentration of bupivacaine hydrochloride in de-ionized water; assay type: physicochemical
Protocol: Bupivacaine hydrochloride (Sigma-Aldrich Corporation, St. Louis, Mo.) was dissolved in de-ionized (DI) water at a concentration of 40 mg/ml (saturation). A calculated amount of sodium hydroxide (in the form of 1 N solution) was added to the solution and the pH of the final mixtures was adjusted to ten to precipitate the Bupivacaine base. The precipitated product was filtered, and further washed with DI water for at least three times. The precipitated product was dried at ca. 40° C. in vacuum for 24 hours.

[2] = cited from earlier work

Row | Compound | concentration in de-ionized (DI) water (saturation) [1] | reported solubility in water [2]
1 | CCCCN1CCCCC1C(=O)Nc1c(C)cccc1C (centres unmarked) [Bupivacaine hydrochloride] | 40000 µg/mL | –
2 | CC(=O)OCC(COC(C)=O)OC(C)=O [triacetin] | – | 7.17 grams in 100 ml of water
